Tests used:
[1] = Displacement of [125I]NT from neurotensin receptor in human HT-29 cells; type: cell-based
[2] = test system: HT-29; test: Antagonist activity at neurotensin receptor in human HT-29 cells assessed as effect on NT-induced intracellular Ca2+ increase by spectrofluorimetry; type: functional, cell-based

CC[C@H](C)[C@@H]1NC(=O)[C@@H]2CCCN2C(=O)[C@H](CS)NC(=O)CNC(=O)[C@H](CCC(=O)O)NC(=O)[C@H](CO)NC(=O)[C@H](CS)NC(=O)[C@H](C(C)C)NC(=O)[C@H](Cc2ccccc2)NC(=O)[C@H]([C@@H](C)CC)NC(=O)[C@@H]2CCCN2C(=O)[C@H](CS)NC(=O)[C@H]([C@H](C)O)NC(=O)[C@H](C(C)C)NC(=O)[C@H]([C@H](C)O)NC(=O)[C@H](C)NC(=O)[C@H](CC(C)C)NC(=O)[C@H](CC(C)C)NC(=O)CNC(=O)[C@H](CS)NC(=O)[C@H](CO)NC(=O)[C@H](CS)NC(=O)[C@H](CCCCN)NC(=O)[C@H](CO)NC(=O)[C@H](CCCCN)NC(=O)[C@H](C(C)C)NC(=O)[C@H](CS)NC(=O)[C@H](Cc2ccc(O)cc2)NC(=O)[C@H](CCCCN)NC(=O)[C@H](CC(N)=O)NC(=O)[C@H](CO)NC1=O [CYCLOPSYCHOTRIDE A]
IC50 [1]: 3 µM | Activity [2]: Dose-dependent effect
